Measured values as given in patent US12214092B2, “Systems and methods for treating biological fluids” (Cerus Corporation, priority 2017, dated 2025).

Test system: platelets
Assay: Platelet quality, apheresis platelets in 100% plasma, 15 μM S-59, INT-100 (~3.6 J/cm^2) or 340 nm LED 1x/2x/3x (~3.6/7.2/10.8 J/cm^2)
Assay type: cell-based
Description: Additional units were illuminated with the INT-100 device at ˜3.6 J/cm^2 for comparison or maintained as an untreated control. […] As shown in the following Tables 11-19, for platelet quality parameters, results were generally similar among the controls and INT-100 and 340 nm test samples, except for the 3×340 nm dosage for certain parameters.

Q: Which results are given for `Cc1oc2c(C)c3oc(=O)cc(C)c3cc2c1COCCN` [S-59, 3-(2-aminoethoxymethyl)-2,5,9-trimethylfuro[3,2-g]chromen-7-one]?
A: Adenosine triphosphate (ATP) (340 nm (1x), D3): 4.4 mmole/10^8 platelets; Glucose (340 nm (1x), D3): 13.49 mmol/L; LDH (340 nm (1x), D3): 12.1 LDH IU/10^11 platelets; Lactate (340 nm (1x), D3): 15.17 mmol/L; Platelet counts (340 nm (1x), D3): 1391 ×10^3 cells/μL; Platelet lysis (340 nm (1x), D3): 4.90%; pCO2 at 37° C. (340 nm (1x), D3): 54.4 mmHg; pH at 37° C. (340 nm (1x), D3): 6.84; pO2 at 37° C. (340 nm (1x), D3): 11.8 mmHg; Adenosine triphosphate (ATP) (340 nm (1x), D5): 4.0 mmole/10^8 platelets; Glucose (340 nm (1x), D5): 10.27 mmol/L; LDH (340 nm (1x), D5): 12.1 LDH IU/10^11 platelets; Lactate (340 nm (1x), D5): 19.81 mmol/L; Platelet counts (340 nm (1x), D5): 1338 ×10^3 cells/μL; Platelet lysis (340 nm (1x), D5): 4.43%; pCO2 at 37° C. (340 nm (1x), D5): 35.7 mmHg; pH at 37° C. (340 nm (1x), D5): 6.70; pO2 at 37° C. (340 nm (1x), D5): 22.5 mmHg; Adenosine triphosphate (ATP) (340 nm (1x), D7): 3.7 mmole/10^8 platelets; Glucose (340 nm (1x), D7): 8.32 mmol/L; LDH (340 nm (1x), D7): 13.1 LDH IU/10^11 platelets; Lactate (340 nm (1x), D7): 21.83 mmol/L; Platelet counts (340 nm (1x), D7): 1391 ×10^3 cells/μL; Platelet lysis (340 nm (1x), D7): 5.23%; pCO2 at 37° C. (340 nm (1x), D7): 34.3 mmHg; pH at 37° C. (340 nm (1x), D7): 6.58; pO2 at 37° C. (340 nm (1x), D7): 16.6 mmHg; Glucose (340 nm (1x), Post-UVA): 17.45 mmol/L; LDH (340 nm (1x), Post-UVA): 11.3 LDH IU/10^11 platelets; Lactate (340 nm (1x), Post-UVA): 9.05 mmol/L; Platelet counts (340 nm (1x), Post-UVA): 1366 ×10^3 cells/μL; Platelet lysis (340 nm (1x), Post-UVA): 4.48%; pCO2 at 37° C. (340 nm (1x), Post-UVA): 91.9 mmHg; pH at 37° C. (340 nm (1x), Post-UVA): 6.89; pO2 at 37° C. (340 nm (1x), Post-UVA): 14.3 mmHg; Adenosine triphosphate (ATP) (340 nm (1x), Pre-UVA): 4.0 mmole/10^8 platelets; LDH (340 nm (1x), Pre-UVA): 10.5 LDH IU/10^11 platelets; Platelet counts (340 nm (1x), Pre-UVA): 1453 ×10^3 cells/μL; Platelet lysis (340 nm (1x), Pre-UVA): 4.30%; pCO2 at 37° C. (340 nm (1x), Pre-UVA): 89.6 mmHg; pH at 37° C. (340 nm (1x), Pre-UVA): 6.90; pO2 at 37° C. (340 nm (1x), Pre-UVA): 41.8 mmHg; Adenosine triphosphate (ATP) (340 nm (2x), D3): 4.4 mmole/10^8 platelets; Glucose (340 nm (2x), D3): 13.63 mmol/L; LDH (340 nm (2x), D3): 12.1 LDH IU/10^11 platelets; Lactate (340 nm (2x), D3): 14.55 mmol/L; Platelet counts (340 nm (2x), D3): 1317 ×10^3 cells/μL; Platelet lysis (340 nm (2x), D3): 4.59%; pCO2 at 37° C. (340 nm (2x), D3): 54.5 mmHg; pH at 37° C. (340 nm (2x), D3): 6.86; pO2 at 37° C. (340 nm (2x), D3): 14.8 mmHg; Adenosine triphosphate (ATP) (340 nm (2x), D5): 4.1 mmole/10^8 platelets; Glucose (340 nm (2x), D5): 10.69 mmol/L; LDH (340 nm (2x), D5): 13.0 LDH IU/10^11 platelets; Lactate (340 nm (2x), D5): 19.06 mmol/L; Platelet counts (340 nm (2x), D5): 1370 ×10^3 cells/μL; Platelet lysis (340 nm (2x), D5): 4.92%; pCO2 at 37° C. (340 nm (2x), D5): 37.5 mmHg; pH at 37° C. (340 nm (2x), D5): 6.72; pO2 at 37° C. (340 nm (2x), D5): 15.3 mmHg; Adenosine triphosphate (ATP) (340 nm (2x), D7): 3.7 mmole/10^8 platelets; Glucose (340 nm (2x), D7): 8.34 mmol/L; LDH (340 nm (2x), D7): 13.2 LDH IU/10^11 platelets; Lactate (340 nm (2x), D7): 22.13 mmol/L; Platelet counts (340 nm (2x), D7): 1376 ×10^3 cells/μL; Platelet lysis (340 nm (2x), D7): 5.19%; pCO2 at 37° C. (340 nm (2x), D7): 36.4 mmHg; pH at 37° C. (340 nm (2x), D7): 6.56; pO2 at 37° C. (340 nm (2x), D7): 14.1 mmHg; Glucose (340 nm (2x), Post-UVA): 16.98 mmol/L; LDH (340 nm (2x), Post-UVA): 12.1 LDH IU/10^11 platelets; Lactate (340 nm (2x), Post-UVA): 8.77 mmol/L; Platelet counts (340 nm (2x), Post-UVA): 1301 ×10^3 cells/μL; Platelet lysis (340 nm (2x), Post-UVA): 4.50%; pCO2 at 37° C. (340 nm (2x), Post-UVA): 94.1 mmHg; pH at 37° C. (340 nm (2x), Post-UVA): 6.89; pO2 at 37° C. (340 nm (2x), Post-UVA): 14.2 mmHg; Adenosine triphosphate (ATP) (340 nm (2x), Pre-UVA): 3.9 mmole/10^8 platelets; LDH (340 nm (2x), Pre-UVA): 10.5 LDH IU/10^11 platelets; Platelet counts (340 nm (2x), Pre-UVA): 1448 ×10^3 cells/μL; Platelet lysis (340 nm (2x), Pre-UVA): 4.30%; pCO2 at 37° C. (340 nm (2x), Pre-UVA): 88.5 mmHg; pH at 37° C. (340 nm (2x), Pre-UVA): 6.90; pO2 at 37° C. (340 nm (2x), Pre-UVA): 45.9 mmHg; Adenosine triphosphate (ATP) (340 nm (3x), D3): 3.8 mmole/10^8 platelets; Glucose (340 nm (3x), D3): 10.87 mmol/L; LDH (340 nm (3x), D3): 11.6 LDH IU/10^11 platelets; Lactate (340 nm (3x), D3): 20.42 mmol/L; Platelet counts (340 nm (3x), D3): 1372 ×10^3 cells/μL; Platelet lysis (340 nm (3x), D3): 4.78%; pCO2 at 37° C. (340 nm (3x), D3): 62.5 mmHg; pH at 37° C. (340 nm (3x), D3): 6.56; pO2 at 37° C. (340 nm (3x), D3): 27.7 mmHg; Adenosine triphosphate (ATP) (340 nm (3x), D5): 0.4 mmole/10^8 platelets; Glucose (340 nm (3x), D5): 1.33 mmol/L; LDH (340 nm (3x), D5): 16.0 LDH IU/10^11 platelets; Lactate (340 nm (3x), D5): 36.09 mmol/L; Platelet counts (340 nm (3x), D5): 1550 ×10^3 cells/μL; Platelet lysis (340 nm (3x), D5): 6.62%; pCO2 at 37° C. (340 nm (3x), D5): 13.9 mmHg; pH at 37° C. (340 nm (3x), D5): 5.57; pO2 at 37° C. (340 nm (3x), D5): 159.5 mmHg; Adenosine triphosphate (ATP) (340 nm (3x), D7): −0.1 mmole/10^8 platelets; Glucose (340 nm (3x), D7): 0.43 mmol/L; LDH (340 nm (3x), D7): 33.7 LDH IU/10^11 platelets; Lactate (340 nm (3x), D7): 36.36 mmol/L; Platelet counts (340 nm (3x), D7): 1474 ×10^3 cells/μL; Platelet lysis (340 nm (3x), D7): 16.6%; pCO2 at 37° C. (340 nm (3x), D7): 4.4 mmHg; pH at 37° C. (340 nm (3x), D7): 5.49; pO2 at 37° C. (340 nm (3x), D7): 178.6 mmHg; Glucose (340 nm (3x), Post-UVA): 16.77 mmol/L; LDH (340 nm (3x), Post-UVA): 12.1 LDH IU/10^11 platelets; Lactate (340 nm (3x), Post-UVA): 9.48 mmol/L; Platelet counts (340 nm (3x), Post-UVA): 1322 ×10^3 cells/μL; Platelet lysis (340 nm (3x), Post-UVA): 4.77%; pCO2 at 37° C. (340 nm (3x), Post-UVA): 98.1 mmHg; pH at 37° C. (340 nm (3x), Post-UVA): 6.87; pO2 at 37° C. (340 nm (3x), Post-UVA): 19.7 mmHg; Adenosine triphosphate (ATP) (340 nm (3x), Pre-UVA): 3.6 mmole/10^8 platelets; LDH (340 nm (3x), Pre-UVA): 10.5 LDH IU/10^11 platelets; Platelet counts (340 nm (3x), Pre-UVA): 1452 ×10^3 cells/μL; Platelet lysis (340 nm (3x), Pre-UVA): 4.30%; pCO2 at 37° C. (340 nm (3x), Pre-UVA): 98.2 mmHg; pH at 37° C. (340 nm (3x), Pre-UVA): 6.87; pO2 at 37° C. (340 nm (3x), Pre-UVA): 90.9 mmHg; Adenosine triphosphate (ATP) (INT-100, D3): 4.3 mmole/10^8 platelets; Glucose (INT-100, D3): 13.11 mmol/L; LDH (INT-100, D3): 11.9 LDH IU/10^11 platelets; Lactate (INT-100, D3): 14.71 mmol/L; Platelet counts (INT-100, D3): 1395 ×10^3 cells/μL; Platelet lysis (INT-100, D3): 4.69%; pCO2 at 37° C. (INT-100, D3): 55.8 mmHg; pH at 37° C. (INT-100, D3): 6.82; pO2 at 37° C. (INT-100, D3): 18.9 mmHg; Adenosine triphosphate (ATP) (INT-100, D5): 4.0 mmole/10^8 platelets; Glucose (INT-100, D5): 10.26 mmol/L; LDH (INT-100, D5): 11.6 LDH IU/10^11 platelets; Lactate (INT-100, D5): 20.18 mmol/L; Platelet counts (INT-100, D5): 1400 ×10^3 cells/μL; Platelet lysis (INT-100, D5): 4.50%; pCO2 at 37° C. (INT-100, D5): 36.4 mmHg; pH at 37° C. (INT-100, D5): 6.67; pO2 at 37° C. (INT-100, D5): 20.1 mmHg; Adenosine triphosphate (ATP) (INT-100, D7): 3.5 mmole/10^8 platelets; Glucose (INT-100, D7): 8.19 mmol/L; LDH (INT-100, D7): 12.6 LDH IU/10^11 platelets; Lactate (INT-100, D7): 23.31 mmol/L; Platelet counts (INT-100, D7): 1439 ×10^3 cells/μL; Platelet lysis (INT-100, D7): 5.18%; pCO2 at 37° C. (INT-100, D7): 35.0 mmHg; pH at 37° C. (INT-100, D7): 6.54; pO2 at 37° C. (INT-100, D7): 19.7 mmHg; Glucose (INT-100, Post-UVA): 17.24 mmol/L; LDH (INT-100, Post-UVA): 11.5 LDH IU/10^11 platelets; Lactate (INT-100, Post-UVA): 8.85 mmol/L; Platelet counts (INT-100, Post-UVA): 1415 ×10^3 cells/μL; Platelet lysis (INT-100, Post-UVA): 4.74%; pCO2 at 37° C. (INT-100, Post-UVA): 91.4 mmHg; pH at 37° C. (INT-100, Post-UVA): 6.89; pO2 at 37° C. (INT-100, Post-UVA): 36.4 mmHg; Adenosine triphosphate (ATP) (INT-100, Pre-UVA): 3.9 mmole/10^8 platelets; LDH (INT-100, Pre-UVA): 10.3 LDH IU/10^11 platelets; Platelet counts (INT-100, Pre-UVA): 1481 ×10^3 cells/μL; Platelet lysis (INT-100, Pre-UVA): 4.30%; pCO2 at 37° C. (INT-100, Pre-UVA): 101.1 mmHg; pH at 37° C. (INT-100, Pre-UVA): 6.87; pO2 at 37° C. (INT-100, Pre-UVA): 98.4 mmHg
